Common to all, as to assay type: cell-based
Assay [1] has as its system p-ERK. Kind of assay: Cell p-ERK assay (HTRF, Advance ERK phospho-T202/Y204 kit) in NCI-H441 cells. The note with it: NCI-H441, human non-small cell lung cancer cell strain, KRAS G12V mutation, 3 h compound incubation. In outline: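 Cells with endogenous KRAS mutations, AsPC-1 (G12D) and NCI-H441 (G12V), were plated overnight and then exposed to compound for 3 h at 37 °C (final 0.1% DMSO, 10% FBS medium). ERK T202/Y204 phosphorylation in lysates was read by HTRF, and IC50 was derived from four-parameter curves of inhibition relative to DMSO and blank controls.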

Assay [2] deals with p-ERK. Kind of assay: Cell p-ERK assay (HTRF, Advance ERK phospho-T202/Y204 kit) in AsPC-1 cells. As to conditions: AsPC-1, human pancreatic cancer cell strain, KRAS G12D mutation, 3 h compound incubation. Here is the method:
AsPC-1 cells were purchased from ATCC, Cat. No. CRL-1682; NCI-H441 cells were purchased from ATCC, Cat. No. HTB-174; RPMI-1640 medium was purchased from Gibco, Cat. No. 11875-093; FBS was purchased from Gibco, Cat. No. 10099-141C; penicillin/streptomycin double-antibiotic solution (PS) was purchased from Gibco, Cat. No. 15140-122; trypsin (containing EDTA) was purchased from Gibco, Cat. No. 25200-072; DMSO was purchased from VWRAMRESCO, Cat. No. 0231-500ML; 96-well cell culture plates were purchased from Corning, Cat. No. 3599; white-bottomed, opaque 96-well plates were purchased from Cisbio, Cat. No. 66PL96025; Advance ERK phospho-T202/Y204 kit was purchased from Cisbio, Cat. No. 64AERPEH; cell counter was purchased from CHEMOMETEC, model: NC-200; microplate reader was purchased from PerkinElmer, model: EnVision.
AsPC-1, a human pancreatic cancer cell strain endogenously containing a KRAS^G12D mutation, was cultured in a complete medium containing RPMI-1640 + 10% FBS + 1% PS. NCI-H441, a human non-small cell lung cancer cell strain endogenously containing a KRAS^G12V mutation, was cultured in a complete medium containing RPMI-1640 + 10% FBS + 1% PS.
The cells were digested with trypsin (containing EDTA), collected in their corresponding complete media, and counted. The density of the cell suspensions was adjusted with their corresponding complete media, and AsPC-1 cells (10000 cells/well) or NCI-H441 cells (20000 cells/well) were seeded into a 96-well cell culture plate, with the volume of the medium in each well being 80 µL. The cell culture plate was incubated in an incubator at 37 °C with 5% CO2 overnight. A series of 3.16-fold gradient dilutions of a 1000× compound stock solution were prepared with DMSO, and then diluted 200-fold with the complete medium described above to give 5× compound stock solutions. On the day after cell seeding, 20 µL of the 5× compound stock solution was added to each cell culture well. As a result, the final concentration of the compound in the cell culture well became 1×, and the DMSO content in the well was 0.1%. In addition to the compound-treated wells described above, cell-containing DMSO control wells were also set. A complete medium containing 0.5% DMSO was added at 20 µL/well. After the mixture was well mixed, the culture plate was incubated in the incubator at 37 °C with 5% CO2 for another 3 h. The medium was then removed from the culture wells, and 50 µL of cell lysis buffer (from Advance ERK phospho-T202/Y204 kit) was added to each well. The mixture was well mixed, incubated for 30 min, and then transferred to a white-bottomed, opaque 96-well assay plate at 16 µL/well, and separately, 16 µL of cell lysis buffer was added to additional wells (serving as blank wells) in the assay plate. After the transfer was completed, 4 µL of p-ERK HTRF antibody mixture (from Advance ERK phospho-T202/Y204 kit) was added to each well of the assay plate, followed by a 4-hour incubation. The HTRF signal values (RLU) were then measured using a microplate reader, and the inhibition rate of the compound against p-ERK levels was calculated as follows: IR(%) = (RLUDMSO - RLUcompound)/(RLUDMSO - RLUblank) × 100%, where RLUDMSO is the average HTRF signal value from the DMSO control well samples, RLU is the average HTRF signal value from the blank well samples, and RLUcompound is the HTRF signal value from the compound-treated well samples. Using an XLfit software, the IR(%) values were plotted against the logarithm of the compound concentrations, and the dose-response curves were fitted using the four-parameter method to calculate the IC50 values.

For another assay, the system named is NCI-H441 cells. Kind of assay: 3D cell proliferation assay (CellTiter Glo-3D) in NCI-H441 cells. The note with it: NCI-H441, human lung cancer cell strain, KRAS G12V mutation, 3D culture, 2% FBS, 5 days, read-out: H441 AP IC50. The gist of the method: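 KRAS^G12V NCI-H441 and KRAS^G12D AsPC-1 cells (800 cells/well each) grown in RPMI-1640 with 2% FBS and treated the day after seeding with 3.16-fold compound dilutions (0.1% DMSO) for 5 days at 37 °C. Viability by CellTiter-Glo 3D luminescence; inhibition versus DMSO and cell-free controls, IC50 from four-parameter fit.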

The next assay has as its system AsPC-1 cells. Kind of assay: 3D cell proliferation assay (CellTiter Glo-3D) in AsPC-1 cells. The note with it: AsPC-1, human pancreatic cancer cell strain, KRAS G12D mutation, 3D culture, 2% FBS, 5 days, read-out: AsPC-1 AP IC50. The source says:
MIA PaCa-2 cells were purchased from ATCC, Cat. No. CRL-1420; AsPC-1 cells were purchased from ATCC, Cat. No. CRL-1682; NCI-H441 cells were purchased from ATCC, Cat. No. HTB-174; NCI-H1975 cells were purchased from ATCC, Cat. No. CRL-5908; DMEM medium was purchased from Gibco, Cat. No. 11995-065; RPMI-1640 medium was purchased from Gibco, Cat. No. 11875-093; FBS was purchased from Gibco, Cat. No. 10099-141C; penicillin/streptomycin double-antibiotic solution (PS) was purchased from Gibco, Cat. No. 15140-122; Horse serum was purchased from Gibco, Cat. No. 16050130; trypsin (containing EDTA) was purchased from Gibco, Cat. No. 25200-072; DMSO was purchased from VWRAMRESCO, Cat. No. 0231-500ML; 384-well cell culture plates were purchased from Corning, Cat. No. 3830; white-bottomed, opaque 384-well assay plates were purchased from Corning, Cat. No. 3570; CellTiter Glo-3D kit was purchased from Promega, Cat. No. G9683; cell counter was purchased from CHEMOMETEC, model: NC-200; microplate reader was purchased from PerkinElmer, model: EnVision.
MIA PaCa-2, a human pancreatic cancer cell strain endogenously containing a KRAS^G12Cmutation, was cultured in a complete medium containing DMEM + 10% FBS + 2.5% Horse serum + 1% PS. AsPC-1, a human pancreatic cancer cell strain endogenously containing a KRAS^G12D mutation, was cultured in a complete medium containing RPMI-1640 + 10% FBS + 1% PS. NCI-H441 cells, a human lung cancer cell strain endogenously containing a KRAS^G12V mutation, were cultured in a complete medium containing RPMI-1640 + 10% FBS + 1% PS. NCI-H1975, a KRAS wild-type human lung cancer cell strain whose cell proliferation […], was cultured in a complete medium containing RPMI-1640 + 10% FBS + 1% PS.
The cells were digested with trypsin (containing EDTA), collected in their respective low-serum complete media containing 2% FBS (for MIA Paca-2 cell culture: DMEM + 2% FBS + 0.5% Horse serum + 1% PS), and counted. After the cell density was adjusted as required, MIA PaCa-2 cells (200 cells/well), AsPC-1 cells (800 cells/well), NCI-H441 cells (800 cells/well), or NCI-H1975 cells (400 cells/well) were seeded into a 384-well cell culture plate, with the volume of the medium in each well being 45 µL. The cell culture plate was incubated in an incubator at 37 °C with 5% CO2 overnight. A series of 3.16-fold gradient dilutions of a 1000× compound stock solution were prepared with DMSO, and then diluted 100-fold with the complete medium containing 2% FBS described above to give 10× compound stock solutions. On the day after cell seeding, 5 µL of the 10× compound stock solution was added to each cell culture well. As a result, the final concentration of the compound in the cell culture well became 1×, and the DMSO content in the well was 0.1%. In addition to the compound-treated wells described above, cell-containing DMSO control wells (with 5 µL of the complete medium containing 1% DMSO added to each well) and cell-free medium control wells (containing 50 µL of the complete medium with 2% FBS) were also set. The culture plate was incubated in an incubator at 37 °C with 5% CO2 for another 5 days, and then 30 µL of CellTiter-Glo working solution was added to each well. The mixture was well mixed, incubated for 30 min, left to stand at room temperature for 30 min, and then transferred to a white-bottomed, opaque 384-well assay plate at 40 µL/well. The chemiluminescence values (RLU) were measured using a microplate reader, and the cell proliferation inhibition rate for each well was calculated: IR(%) = (RLUDMSO - RLUcompound)/(RLUDMSO - RLUblank) × 100%, where RLUDMSO is the average RLU signal value from the DMSO control well samples, RLUblank is the average RLU signal value from the medium control well samples, and RLUcompound is the RLU signal value from the compound-treated well samples. […]

Where two headings read alike, the source gives them in different places.

As for `CCn1cc2c(c1-c1cc(N3CCN(C)CC3)cnc1[C@H](C)OC)CC(C)(C)COC(=O)[C@@H]1CCCN(N1)C(=O)[C@@H](NC(=O)[C@H]1[C@H](C)[C@@H]1C)Cc1nc(cs1)/C=C/2` (single isomer, unassigned) [Compound Z8], the IC50 in the assay with p-ERK [1] (Homo sapiens, NCI-H441, 3 h) is 4.74 nM; in the assay on p-ERK [2] (ASPC1), 4.98 nM; in the assay with NCI-H441 cells (Homo sapiens, NCI-H441, 120 h), 2.39 nM; with AsPC-1 cells (ASPC1, 120 h), 2.37 nM.

For the compound `CCn1c(F)c2c(c1-c1cc(N3CCN(C)CC3)cnc1C(C)OC)CC(C)(C)COC(=O)C1CCCN(N1)C(=O)C(NC(=O)C1C(C)C1C)Cc1nc(cs1)C=C2` [Compound Z75, (1r,2S,3R)-N-((4^2Z,8^3R,2E,6R)-1^1-ethyl-1^2-fluoro-1^5-(2-((S)-1-methoxyethyl)-5-(4-methylpiperazin-1-yl)pyridin-3-yl)-12,12-dimethyl-7,9-dioxo-8^1,8^2,8^3,8^4,8^5,8^6-hexahydro-1^1H-10-oxa-4(4,2)-thiazola-8(1,3)-pyridazina-1(3,4)-pyrrolacyclotridecaphan-2-en-6-yl)-2,3-dimethylcyclopropane-1-carboxamide], the IC50 turned out to be 1.3 nM in the assay on p-ERK [1], 1.46 nM with p-ERK [2], 1.85 nM with NCI-H441 cells and 2.17 nM in the assay on AsPC-1 cells.

As for `CCn1cc2c(c1-c1cc(C#CCN3CCC(C#N)(CN)CC3)cnc1[C@H](C)OC)CC(C)(C)COC(=O)[C@@H]1CCCN(N1)C(=O)[C@@H](NC(=O)[C@H]1[C@H](C)[C@@H]1C)Cc1nc(co1)/C=C/2` (atropisomer, axis not shown; (Ra)) [Compound Z234, (1r,2R,3S)-N-((4^2Z,8^3 S,2E,6S)-(Ra)-1^5-(5-(3-(4-(aminomethyl)-4-cyanopiperidin-1-yl)prop-1-yn-1-yl)-2-((S)-1-methoxyethyl)pyridin-3-yl)-1^1-ethyl-12,12-dimethyl-7,9-dioxo-8^1,8^2,8^3,8^4,8^5,8^6-hexahydro-1^1H-10-oxa-4(4,2)-oxazola-8(1,3)-pyridazina-1(3,4)-pyrrolacyclotridecaphan-2-en-6-yl)-2,3-dimethylcyclopropane-1-carboxamide], the IC50 with p-ERK [1] (Homo sapiens, NCI-H441, 3 h) came out at 0.36 nM; with p-ERK [2] (ASPC1) it was 0.07 nM.

For the compound `CO[C@@H](C)c1ncc(C#CCN2CCS(=O)(=O)CC2)cc1-c1c2c(nn1C(C)C)/C=C/c1csc(n1)C[C@H](NC(=O)CC1CC(CO)C1)C(=O)N1CCC[C@H](N1)C(=O)OCC(C)(C)C2` (stereo partly drawn) [Compound Z39, N-((4^2Z,8^3S,2E,6S)-1^5-(5-(3-(1,1-dioxidothiomorpholino)prop-1-yn-1-yl)-2-((S)-1-methoxyethyl)pyridin-3-yl)-1^1-isopropyl-12,12-dimethyl-7,9-dioxo-8^1,8^2,8^3,8^4,8^5,8^6-hexahydro-1^1H-10-oxa-4(4,2)-thiazola-8(1,3)-pyridazina-1(3,4)-pyrrolacyclotridecaphan-2-en-6-yl)-2-(3-(hydroxymethyl)cyclobutyl)acetamide], the IC50 in the assay with p-ERK [1] (Homo sapiens, NCI-H441, 3 h) was 177 nM; in the assay on p-ERK [2] (ASPC1) it was 506 nM.

In the case of `CCn1nc2c(c1-c1cc(N3CCN(C)CC3)cnc1[C@H](C)OC)CC(C)(C)COC(=O)[C@@H]1CCCN(N1)C(=O)[C@@H](NC(=O)[C@H]1[C@H](C)[C@@H]1C)Cc1nc(cs1)/C=C/2` (single isomer, unassigned) [Compound Z4-1], the IC50 in the assay on p-ERK [1] (Homo sapiens, NCI-H441, 3 h) amounted to 71.8 nM; in the assay with p-ERK [2] (ASPC1), 191 nM.

Source of the values: patent EP4772514A1, “MACROCYCLIC COMPOUNDS, PREPARATION METHOD THEREFOR, AND USE THEREOF” (Genfleet Therapeutics (Shanghai) Inc., priority 2023, dated 2025).
